This is an account of results in article PMC10724190, “Phytochemical screening and biological evaluation of Greek sage (Salvia fruticosa Mill.) extracts” (Scientific Reports, 2023).

Assay [1] addresses microbial XO (xanthine oxidase). In words: Xanthine oxidase inhibitory activity, HPLC-PAD monitoring of uric acid formation. Particulars: for IC50, mass of standard or dry weight of sample capable of reducing XO activity to 50%: 15 min preincubation, 60 min at 25 °C, xanthine substrate; for IC50: read-out: IC50 of XO inhibition as concentration. In kind it is biochemical. The procedure:
The transformation of xanthine (substrate) to uric acid (product) by XO with or without the presence of tested samples was monitored with the use of HPLC-PAD at 285 nm (Fig. 3a). The enzyme activity was calculated as the percentage of the uric acid peak area formed in the presence of the tested sample compared to the control without the addition of the sample (Fig. 3b). The inhibition of the XO enzyme was expressed as an IC50 value, meaning the mass of standard or dry weight of sample (μg) capable of reducing enzyme activity to 50% (Fig. 3b,c).
The ability of – caffeic acid, carnosic acid, carnosol, rosmarinic acid, salvianolic acid B and scutellarin, as well as S. fruticosa extracts – to inhibit XO was determined. The stock solutions of xanthine (substrate) and uric acid (product) (1.5 mM) were prepared in an NaOH aqueous solution (1 M). The working solutions of these compounds (150 μM) were prepared by dilution of stock solutions with a phosphate buffer (10 mM, pH 7.7). An enzyme solution with an activity of approximately 0.5 U/mL was prepared in the same phosphate buffer. The same buffer was also used to dilute stock solutions of phytochemical standards and S. fruticosa extracts. The diluted samples with different concentrations of standard or plant extract (85 µL) were mixed with an XO solution (30 µL) and preincubated for 15 min at 25 °C, followed by the addition of 60 µL of a 150 µM xanthine solution (substrate). The mixtures were incubated for 60 min at 25 °C, then 25 µL of HCl solution (1 M) was added to stop the enzymatic reaction.
The samples were analyzed using an HPLC-PAD system (1200 series, Agilent Technologies, Wilmington, DE, USA) equipped with a Kinetex® column (150 × 4.6 mm, 5 µm, Phenomenex). A two-component mobile phase was used, in which component A was water acidified with formic acid (1%) and component B was methanol. The mobile phase was pumped at flow rate of 1 mL/min according to the gradient elution program: 0 min – 100% A, 8 min – 18% B, 12 min – 80% B, 18 min – 100% B and finally, the initial conditions were held for 5 min as a re-equilibration step. The injection volume was 30 μL. The inhibition of the XO enzyme was expressed as an IC50 value, meaning the mass of standard or dry weight of the sample (μg) that could reduce enzyme activity to 50%. Enzyme activity was calculated as the percentage of the uric acid peak area (RT 3.1 min) that was formed in the presence of extracts compared to the control sample without the addition of extracts.

Assay [2] is described as follows: Total antioxidant activity, ABTS, DPPH and F–C tests taken together. Particulars: reference antioxidant trolox. The procedure:
The presented study compared the results of the three most popular spectrophotometric tests using ABTS, DPPH and Folin–Ciocalteu (F–C) reagents. ABTS and DPPH assays are used widely to determine free radical scavenging activity of extracts, as are pure compounds. For S. fruticosa extracts, the calculated antioxidant activity describes the number of ABTS or DPPH molecules reduced by antioxidants derived from 1 g of dried material after 10 min of reaction. These values were calculated in the linear range of the method and expressed as the slope of the line describing the relationship between the number of reduced millimoles of oxidants and various amounts of tested samples – as grams of dry matter in reaction mixtures (Fig. 2b).
The study also includes the method with the Folin–Ciocalteu reagent. It consists in the transfer of electrons in an alkaline environment from compounds with active hydroxyl groups to phosphomolybdic phosphotungstic acid complexes. The reducing capacity in this case was expressed as the number of millimoles of gallic acid equivalents, that formed blue complex and were derived from 1 g of dry matter of the plant. […]
The antioxidant activity of – caffeic acid, carnosic acid, carnosol, rosmarinic acid, salvianolic acid B, scutellarin and S. fruticosa extracts – was determined by spectrophotometric tests using ABTS, DPPH and Folin–Ciocalteu (F–C) reagents. […] For tests with radicals, the data were used to generate a plot of linear dependence between the different content of tested standards or S. fruticosa samples calculated as gram of dry weight present in the reaction mixtures and the number of scavenged millimoles of ABTS or DPPH radical. […] For the F–C test the results were calculated using the calibration curve of gallic acid. The antioxidant activity of the tested samples was expressed as a slope of the line that represents the relationship between the mass of standards or plant material [g] and amount of gallic acid equivalents [mmol] present in reaction mixtures after 60 min.
(In general: The DPPH test is a chemical assay of radical scavenging.)

With `O=C(O)/C=C/c1ccc(O)c(O)c1` [Caffeic acid], in assay [1], the “IC50, mass of standard or dry weight of sample capable of reducing XO activity to 50%” value came to 0.1 µg and the IC50 was 2.8 µM. In addition, in assay [2], the “Antioxidant activity compared with trolox” value is “more efficient than trolox”.
Turning to `Oc1ncnc2[nH]ncc12` [allopurinol], in assay [1], the “IC50, mass of standard or dry weight of sample capable of reducing XO activity to 50%” value was found to be 0.15 µg and the IC50 was found to be 5.5 µM.
Take `O=C(/C=C/c1ccc(O)c(O)c1)O[C@H](Cc1ccc(O)c(O)c1)C(=O)O` [rosmarinic acid, Rosmarinic acid]: in assay [1], the IC50 amounted to 43.8 µM. Besides, the “Antioxidant activity compared with trolox” value in assay [2] is reported as “more efficient than trolox”.
With Salvianolic acid B, the “Antioxidant activity compared with trolox” value in assay [2] is “more efficient than trolox”.
